# In PubChem BioAssay (NCI):
#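 Grown in 96-well plates, cells were treated for 48 hours with each compound at five concentrations. Insufficient inhibition: endpoint recorded as highest concentration tested. TGI marks complete inhibition of growth.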
# What was measured:
# Assay in all cases: NCI anticancer screen, dose series, 48 h
# MDA-MB-435 = test system: MDA-MB-435
# EKVX NSCLC = test system: EKVX NSCLC
# SF-295 CNS = test system: SF-295 CNS
# SW-620 colon = test system: SW-620 colon
# HCT-15 colon = test system: HCT-15 colon
# HCT-116 colon = test system: HCT-116 colon
# HT29 colon = test system: HT29 colon
# A549 NSCLC = test system: A549 NSCLC
# CAKI-1 renal = test system: CAKI-1 renal
# HCC-2998 colon = test system: HCC-2998 colon
# RXF 393 renal = test system: RXF 393 renal
# HS 578T breast = test system: HS 578T breast
# ACHN renal = test system: ACHN renal
# SK-MEL-2 melanoma = test system: SK-MEL-2 melanoma
# M14 melanoma = test system: M14 melanoma
# A498 renal = test system: A498 renal
# NCI-H23 lung = test system: NCI-H23 lung
# SK-MEL-28 melanoma = test system: SK-MEL-28 melanoma
SMILES,TGI (MDA-MB-435) [µM],TGI (EKVX NSCLC) [µM],TGI (SF-295 CNS) [µM],TGI (SW-620 colon) [µM],TGI (HCT-15 colon) [µM],TGI (HCT-116 colon) [µM],TGI (HT29 colon) [µM],TGI (A549 NSCLC) [µM],TGI (CAKI-1 renal) [µM],TGI (HCC-2998 colon) [µM],TGI (RXF 393 renal) [µM],TGI (HS 578T breast) [µM],TGI (ACHN renal) [µM],TGI (SK-MEL-2 melanoma) [µM],TGI (M14 melanoma) [µM],TGI (A498 renal) [µM],TGI (NCI-H23 lung) [µM],TGI (SK-MEL-28 melanoma) [µM]
CCNc1nc(N)c(C(=O)c2cccs2)s1,82.6,62.8,> 100,> 100,> 100,> 100,72.4,> 100,59.9,> 100,20,> 100,> 100,45,> 100,82.6,63.9,> 100
COc1ccc2[nH]c3c([N+](=O)[O-])ccc(Cl)c3c(=O)c2c1,> 55.8,> 100,> 100,42.8,40.8,27.4,32.2,> 100,49.5,> 71.2,32.2,> 100,29.3,58.5,35.9,> 100,> 52.8,98.1
COc1cc(CNc2nc3ccccc3n2Cc2ccccc2)cc(CN2CCOCC2)c1O,44.7,> 100,41.6,> 100,70.6,41.7,70.4,> 100,> 100,85.1,47.7,80.9,> 100,47.5,40.4,39.2,> 100,34.6
N#CC(c1ccccc1)N(CCc1ccccc1)C(=O)c1ccccc1 (stereo unspecified),> 100,> 100,> 100,> 100,> 100,> 100,> 100,> 100,> 100,> 100,> 100,86.3,> 100,> 100,> 100,> 100,> 100,> 100
C=C(CN(C)C)C(=O)c1ccc(C)cc1C,17.1,40,31.6,13.5,12.5,13,36.6,63.1,8.39,31.5,9.4,> 79,19.3,37,14.5,33.7,27.3,20.4
O=c1oc2ccccc2cc1-c1csc(Nc2cc(Cl)cc(Cl)c2)n1,> 53.1,> 100,> 44.5,50.9,> 100,> 38.3,14.2,16.9,> 32.4,> 100,14.6,98.1,4.38,> 100,> 72.2,65.6,> 56.7,59
C/C(=N/NC(=S)N(C)CCc1ccccn1)c1cnccn1,35.7,12.8,4.65,32.2,29,18,11.9,11.5,10.5,33.8,13.9,53.9,3.51,26.9,7.37,> 100,13,40.3
NC(N)=NCc1ccc2c(c1)OCO2,> 100,> 100,> 100,> 100,> 100,> 100,> 100,> 100,> 100,> 100,> 100,> 100,> 100,> 100,> 100,> 100,> 100,> 100
O=C1N[C@H]2C(=O)c3c(Cl)sc(Cl)c3[C@H]2O1,17.8,3.85,32.1,5.4,16.6,8.73,6.23,40,9.7,3.6,9.31,67.1,21,43.4,19.6,60.5,22.5,23.2
CN(CCCCN1CCCC1)CCCCN(C)C(=O)Cc1ccc(Cl)c(Cl)c1,5.3,37,38,38.4,50,29.3,15.4,31.2,39.2,18.5,25.9,54.5,57.1,19.7,35.7,32.4,37.3,3.88
COc1ccc(C2C3=C(COC3=O)OC(C)(C)Oc3cc4c(cc32)OCO4)cc1 (stereo unspecified),14.9,> 92.7,> 100,> 100,> 100,> 85.4,> 100,> 100,> 86.9,96.9,79,> 100,> 100,> 100,> 100,85.2,> 100,> 100
CC(C)(Cl)C(Br)CCC(CBr)=C(Cl)CCl (mixture of isomers),3.46,> 10,> 10,5.6,5.15,3.63,3.77,> 10,5.67,> 8.02,4.97,> 10,> 8.98,4.41,3.49,> 5.56,5.42,4.41
